# Test results: PMC11965660, “Isobavachalcone ameliorates Alzheimer disease pathology by autophagy-mediated clearance of amyloid beta and inhibition of NLRP3 inflammasome in primary astrocytes and 5x-FAD mice” (Frontiers in Pharmacology, 2025)
# Where two headings read alike, the source gives them in different places.
# Experiments:
# 5x-FAD mice [1] = experiment: Rotarod test; type: in vivo
# Excerpt: Hemizygous 5x-FAD transgenic mice (B6.Cg-Tg(APPSwFlLon, PSEN1*M146L*L286V) 6799Vas/Mmjax; MMRRC Strain: 034848-JAX) on congenic C57BL/6J genetic background were used for experiments. The 5x-FAD mice were genotyped using APP-specific qPCR probes to detect the transgene as per the protocol of Jackson Laboratory. Six months old 5x-FAD mice were randomly divided into three groups (n = 5), based on their body weights, with three males and two females in each group. We used mixed-cohort of males and females for our study to exclude any gender biased effect of IBC. Also, AD symptoms are more pronounced in females than in males ([Aggarwal and Mielke, 2023]), making it possible that males and females respond differently to the drug and treatment. […]
# To check the effect of IBC on the behavior of 5x-FAD mice, open field test (OFT), rotarod (Make; Ugo Basile, rota-rod for mice 7650) and radial arm maze (Make; Ugo Basile) tests were performed. […] After acclimatizing mice with rotarod for 5 days, their latency to fall was calculated on the day of analysis. […] Distance traveled, speed, time spent in corner and center zones and mobile episodes were recorded through an automated video tracking system using AnyMaze software. […] The movement of mice was tracked with the help of automated AnyMaze software connected with a tracking camera and various memory retention parameters were assessed.
# NLRP3 inflammasome = NLRP3 inflammasome activation in primary astrocytes, IL-1β and IL-18 release by ELISA; type: cell-based, C57BL/6J mice; conditions: for IC50: Mus musculus, Astrocyte, primary astrocytes, microglial conditional media, LPS 1 μg/ml 4 h, IBC 1 h, ATP 5 mM 30 min, ELISA
# Experimental: Primary astrocytes were first treated with microglia conditional media to induce astrogliosis ([Liddelow et al., 2017]). For this, the microglia (N9) cell line, provided by Dr. Anirban Basu (National Brain Research Centre, Gurgaon, India) was cultured in RPMI-1640. N9 cells (Passage 28-35) were seeded in 24 well plate at density 0.05 × 10^6 per well. The cells were treated with 1 μg/ml LPS, and supernatant was collected after 24 h. Seeded astrocytes were then treated with the LPS stimulated N9 cells supernatant for 24 h. Thereafter, the treatment for NLRP3 inflammasome activation was given, including priming with fresh 1 μg/ml LPS for 4 h, followed by washing and IBC or MCC950 (100 nM) treatment for 1 h in incomplete media (media without fetal bovine serum). ATP at 5 mM concentration was used as secondary signal for 30 min.
# The experiment was terminated by collecting the cell supernatant.
# After the termination of experiments, the supernatant was collected and analyzed for levels of cytokines. For measuring IL-1β and IL-18, supernatant collected after NLRP3 inflammasome activation as mentioned above, was subjected to ELISA. For detection of IL-1β in mice cortex, mice cortices were isolated and homogenized in RIPA buffer to measure IL-1β in homogenates. The manufacturer’s protocol was followed for measuring the cytokines. The levels of measured cytokines were normalized with the total protein content of the cells. For total protein content of cell pellet lysed with lysis buffer (0.2 N NaCl and 1% Triton-X 100) was measured.
# IC50 of Isobavachalcone for IL-1β and IL-18 was calculated by using GraphPad Prism 8 software using non-linear regression analysis model. Log (inhibitor) vs. response curve was plotted.
# Aβ plaques = experiment: Immunohistochemistry of Aβ in hippocampus; type: in vivo, 5x-FAD mice; conditions: for average number of Aβ plaques: 5x-FAD mice
# Excerpt: (§1) Hemizygous 5x-FAD transgenic mice (B6.Cg-Tg(APPSwFlLon, PSEN1*M146L*L286V) 6799Vas/Mmjax; MMRRC Strain: 034848-JAX) on congenic C57BL/6J genetic background were used for experiments. The 5x-FAD mice were genotyped using APP-specific qPCR probes to detect the transgene as per the protocol of Jackson Laboratory. Six months old 5x-FAD mice were randomly divided into three groups (n = 5), based on their body weights, with three males and two females in each group. We used mixed-cohort of males and females for our study to exclude any gender biased effect of IBC. Also, AD symptoms are more pronounced in females than in males ([Aggarwal and Mielke, 2023]), making it possible that males and females respond differently to the drug and treatment. Considering this, it is important to show effect of IBC on both sexes. At this age, Aβ deposition and neuroinflammation has already progressed in these mice. We have used IBC as a curative drug rather than a preventive drug. Prior to the initiation of the study, all the animals were acclimatized for 1 week under standard laboratory conditions; animals were drug naive with no prior procedures performed. All testing were performed from 1 to 4 p.m. IBC was orally (OD) given to two groups at different doses, 25 mg/kg (1% DMSO, 2% Tween 80, 19% PEG200, and 78% distilled water) and 50 mg/kg (1% DMSO, 5% Tween 80, 19% PEG200% and 75% distilled water) using oral gavage. 5x-FAD control mice were administered with vehicle (1% DMSO, 5% Tween 80, 19% PEG200% and 75% distilled water). For behavioral and Immunohistochemistry assays, experimenters were blinded to animal identity while carrying out the procedures.
# Mice’s hippocampus tissue was fixed in 10% formalin. Dehydrated tissue slices were made and placed on slides. For analysis, tissue was rehydrated following subsequent incubation in xylene, xylene: ethanol, 100% ethanol, 90% ethanol, 70% and 50% ethanol. After tissue rehydration, cells were permeabilized using 0.4% Triton-X100 for 10 min. […] Images were taken in a CQ1 high throughput imaging system and analyzed using cell pathfinder software.
# 5x-FAD mice [2] = experiment: Radial arm maze test; type: in vivo; conditions: for Latency to first entry to baited arm: 5x-FAD mice
# Excerpt: as §1
# To check the effect of IBC on the behavior of 5x-FAD mice, open field test (OFT), rotarod (Make; Ugo Basile, rota-rod for mice 7650) and radial arm maze (Make; Ugo Basile) tests were performed. All behavioral assays and testing were performed by an experimenter blinded to the treatment groups. To check the effect of IBC on motor coordination and balancing rotarod test was performed. After acclimatizing mice with rotarod for 5 days, their latency to fall was calculated on the day of analysis. The given final values are the mean of three independent attempts of each mouse. OFT was performed to assess exploratory and locomotor activity in a white box (45 × 60 cm). Distance traveled, speed, time spent in corner and center zones and mobile episodes were recorded through an automated video tracking system using AnyMaze software. To check the effect of IBC on the spatial memory of mice, the eight-armed radial arm maze test was done. The mice were acclimatized to the maze for 5 days before the experiment. Each mouse was trained to navigate the maze for five consecutive days. The mouse was placed on the end of one arm (entry arm). For spatial memory assessment, a food reward (100 mg of butter cookies) was placed in the selected arm, which was considered as […]. The movement of mice was tracked with the help of automated AnyMaze software connected with a tracking camera and various memory retention parameters were assessed.
# [3] = 25 and 50 mg/kg oral, vs 5x-FAD control
compound,measurement,setting,value
"CC(C)=CCc1c(O)ccc(C(=O)/C=C/c2ccc(O)cc2)c1O [IBC, isobavachalcone]",latency to fall from rotarod,5x-FAD mice [1]; 25 mg/kg oral,92 s
same,latency to fall from rotarod,5x-FAD mice [1]; 50 mg/kg oral,118 s
same,IC50,NLRP3 inflammasome; read-out: IC50 for IL-1β release,2.95 µM
same,IC50,NLRP3 inflammasome; read-out: IC50 for IL-18 release,2.75 µM
same,inhibitory effect on release of IL-1β when autophagy is inhibited,"NLRP3 inflammasome; pre-treatment with 20 nM bafilomycin A1 for 1 h, ELISA and western blotting",completely reversed
same,average number of Aβ plaques,Aβ plaques; 25 mg/kg oral 2 months,21
same,average number of Aβ plaques,Aβ plaques; 50 mg/kg oral 2 months,15
same,total Aβ fluorescence intensity,"Aβ plaques; 25 and 50 mg/kg, vs 5x-FAD control",highly significant decline
same,Latency to first entry to baited arm,5x-FAD mice [2]; 25 mg/kg oral,16.58 s
same,Latency to first entry to baited arm,5x-FAD mice [2]; 50 mg/kg oral,14.36 s
same,Baited arm time,5x-FAD mice [2]; [3],significantly longer time
same,Distance traveled to find the baited arm,5x-FAD mice [2]; [3],significantly less distance
same,Entries to non-baited arm,5x-FAD mice [2]; [3],smaller number of entries
